Results published in patent US7348347B2, “Substituted 4,5,6,7-tetrahydrobenzthiazol-2-ylamine compounds” (Gruenenthal GmbH, priority 2004, dated 2008).

Target: T1, 5-HT uptake (Rattus norvegicus, UniProt P31652)
T1 construct: from tissue; host or cells: rat brain synaptosomes (P2 fraction) from marrow (medulla) and pons
Experiment: Inhibition of 5-HT uptake in rat brain synaptosomes
Format: biochemical
Settings: rat synaptosomes (and pons), [3H]-5-HT
Method: The relevant literature reference is enclosed herein by reference and is to be regarded as part of the disclosure.
The homogenate is centrifuged at 4° C. for 10 minutes at 1000 g. Following subsequent centrifugation at 17,000 g for 55 minutes, the synaptosomes (P2 fraction) are obtained, which are then resuspended in 0.32 M […] (0.5 mL/100 mg of the original weight).
The respective uptake was measured in a 96 well microtiter plate. The volume was 250 μL and the incubation was carried out at room temperature (ca 20-25° C.) under a blanket of oxygen.
The 96 samples through were then filtered through a Unifilter GF/B® microtiter plate (Packard) and washed with 200 mL of incubated buffer with the aid of a “Brabdel Cell-Harvester MPXRI 96T”. The Unifilter GF/B plate was dried at 55° C. over a period of 1 h. The plate was then sealed with a back seal® (Packard) and there were then added 35 μL of scintillant fluid per well (Ultima Gold, Packard).
A detailed description of the method is disclosed in the literature, for example, in M. Ch.

T1 sequence (P31652 whole entry): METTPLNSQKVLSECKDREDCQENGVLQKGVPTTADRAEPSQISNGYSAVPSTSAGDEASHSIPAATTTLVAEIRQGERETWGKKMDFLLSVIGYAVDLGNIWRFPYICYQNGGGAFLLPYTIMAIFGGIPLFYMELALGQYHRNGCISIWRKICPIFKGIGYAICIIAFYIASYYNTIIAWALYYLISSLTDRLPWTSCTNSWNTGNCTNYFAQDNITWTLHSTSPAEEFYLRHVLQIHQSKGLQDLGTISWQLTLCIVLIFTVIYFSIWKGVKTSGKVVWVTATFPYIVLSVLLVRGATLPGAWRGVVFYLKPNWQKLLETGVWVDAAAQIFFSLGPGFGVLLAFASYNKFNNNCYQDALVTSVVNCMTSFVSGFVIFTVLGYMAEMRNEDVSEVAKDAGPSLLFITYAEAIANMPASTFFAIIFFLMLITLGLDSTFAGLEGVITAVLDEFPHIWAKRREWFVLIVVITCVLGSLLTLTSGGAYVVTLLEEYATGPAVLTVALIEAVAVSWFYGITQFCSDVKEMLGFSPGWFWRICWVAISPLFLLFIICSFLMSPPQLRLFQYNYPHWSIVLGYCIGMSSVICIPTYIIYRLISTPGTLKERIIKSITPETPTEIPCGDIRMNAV

Q: Which “% Inhibition of 5-HT uptake [10 μM]” value does the source give for “2-[2-(3,5-Difluorophenyl)acetylamino]-4,5,6,7-tetrahydrobenzthiazol-4-carboxylic acid[1-(2-ethoxybenzyl)pyrrolidin-3-yl]methylamide [Example 44]” here?
A: Its value is 41%.

Q: For `CN1CCCN(C(=O)C2CCCc3sc(NC(=O)COc4ccccc4)nc32)CC1` (stereo not shown) [Example 2, N-[4-(4-Methyl-[1,4]diazepam-1-carbonyl)-4,5,6,7-tetrahydrobenzthiazol-2-yl]-2-phenoxy acetamide], which “% Inhibition of 5-HT uptake [10 μM]” value is on record?
A: The value was 58%.

Same assay, conditions: rat synaptosomes (medulla and pons), [3H]-5-HT

Q: With `CN(C)CCN1CCN(C(=O)C2CCCc3sc(NC(=O)CC4CCCCC4)nc32)CC1` (stereo not shown) [Example 1, 2-Cyclohexyl-N-{4-[4-(2-Dimethylaminoethyl)piperazin-1-carbonyl]-4,5,6,7-tetrahydrobenzthiazol-2-yl}acetamide] as the molecule, how does the inhibition at 10 µM read?
A: The inhibition at 10 µM was 65%.

Q: `CN1CCN(C(=O)C2CCCc3sc(NC(=O)c4ccc5ccccc5c4)nc32)CC1` (stereo not shown) [Example 4, Naphthalene-2-carboxylic acid[4-(4-methylpiperazin-1-carbonyl)-4,5,6,7-tetrahydrobenzthiazol-2-yl]amide] was tested. Which “% Inhibition of 5-HT uptake [10 μM]” value did it give?
A: Its value is 48%.

Q: For `O=C(Cc1cccs1)Nc1nc2c(s1)CCCC2C(=O)N1CCCC1CN1CCCC1` (stereo not shown) [Example 5, N-[4-(2-Pyrrolidin-1-ylmethylpyrrolidin-1-carbonyl)-4,5,6,7-tetrahydrobenzthiazol-2-yl]-2-thiophen-2-ylacetamide], which inhibition at 10 µM is on record?
A: The inhibition at 10 µM was 41%.

Q: With `COc1ccccc1CC(=O)Nc1nc2c(s1)CCCC2C(=O)N1CCN(Cc2cc(OC)c3c(c2)OCO3)CC1` (stereo not shown) [Example 6, N-{4-[4-(7-Methoxybenzo[1, 3]dioxol-5-ylmethyl)piperazin-1-carbonyl]-4,5,6,7-tetrahydrobenzthiazol-2-yl}-2-(2-methoxyphenyl)acetamide] as the molecule, how does the inhibition at 10 µM read?
A: The inhibition at 10 µM was 51%.

Q: `CC1CCCCN1CCCNC(=O)C1CCCc2sc(NC(=O)C=Cc3ccco3)nc21` (stereo not shown) [Example 23, 2-(3-Furan-2-ylacryloylamino)-4,5,6,7-tetrahydrobenzthiazol-4-carboxylic acid [3-(2-methylpiperidin-1-yl)propyl]amid] was tested. Which inhibition at 10 µM did it give?
A: Its inhibition at 10 µM is 57%.

Q: For `CN(C)CCCNC(=O)C1CCCc2sc(NC(=O)CC(C)(C)C)nc21` (stereo not shown) [Example 24, 2-(3,3-Dimethylbutyrylamino)-4,5,6,7-tetrahydrobenzthiazol-4-carboxylic acid(3-dimethylaminopropyl)amide], which inhibition at 10 µM is on record?
A: Its inhibition at 10 µM is 89%.

Q: How did the inhibition at 10 µM turn out when `COc1ccc(C(=O)Nc2nc3c(s2)CCCC3C(=O)N2CCN(Cc3ccc(Cl)cc3)CC2)cc1` (stereo not shown) [Example 25, N-{4-[4-(4-Chlorobenzyl)piperazin-1-carbonyl]-4,5,6,7-tetrahydrobenzthiazol-2-yl}-4-methoxybenzamide] was run?
A: Its inhibition at 10 µM is 53%.

Q: For `O=C(Nc1nc2c(s1)CCCC2C(=O)N1CCCC1CN1CCCC1)c1ccc2ccccc2c1` (stereo not shown) [Example 26, Naphthalene-2-carboxylic acid[4-(2-pyrrolidin-1-ylmethylpyrrolidin-1-carbonyl)-4,5,6,7-tetrahydrobenzthiazol-2-yl]amide], which “% Inhibition of 5-HT uptake [10 μM]” value is on record?
A: Its value is 80%.

Q: `CN(C)CCNC(=O)C1CCCc2sc(NC(=O)COc3ccccc3)nc21` (stereo not shown) [Example 30, 2-(2-Phenoxyacetylamino)-4,5,6,7-tetrahydrobenzthiazol-4-carboxylic acid(2-dimethylaminoethyl)amide] was tested. Which “% Inhibition of 5-HT uptake [10 μM]” value did it give?
A: The value was 64%.

Q: With `CCOc1ccccc1C(=O)Nc1nc2c(s1)CCCC2C(=O)N1CCCC1CN1CCCC1` (stereo not shown) [Example 31, 2-Ethoxy-N-[4-(2-pyrrolidin-1-ylmethylpyrrolidin-1-carbonyl)-4,5,6,7-tetrahydrobenzthiazol-2-yl]benzamide] as the molecule, how does the inhibition at 10 µM read?
A: The inhibition at 10 µM was 59%.

Q: `O=C(Nc1nc2c(s1)CCCC2C(=O)N1CCN(CC(=O)N2CCCC2)CC1)c1ccc2ccccc2c1` (stereo not shown) [Example 32, Naphthalene-2-carboxylic acid{4-[4-(2-oxo-2-pyrrolidin-1-ylethyl)piperazin-1-carbonyl]-4,5,6,7-tetrahydrobenzthiazol-2-yl}amide] was tested. Which “% Inhibition of 5-HT uptake [10 μM]” value did it give?
A: Its value is 51%.

Q: `Cc1cc(C)cc(C(=O)Nc2nc3c(s2)CCCC3C(=O)NC2CCN(Cc3ccccc3SC(C)(C)C)C2)c1` (stereo not shown) [Example 35] was tested. Which “% Inhibition of 5-HT uptake [10 μM]” value did it give?
A: The value was 41%.

Q: How did the inhibition at 10 µM turn out when `CC=CC=CC(=O)Nc1nc2c(s1)CCCC2C(=O)NCC1CCN(Cc2ccc(-c3ccccc3)cc2)C1` (stereo not shown) [Example 37, 2-Hexa-2,4-dienoylamino-4,5,6,7-tetrahydrobenzthiazol-4-carboxylic acid (1-biphenyl-4-ylmethylpyrrolidin-3-yl)methylamide] was run?
A: Its inhibition at 10 µM is 44%.

Q: Which “% Inhibition of 5-HT uptake [10 μM]” value does the source give for `CCCCCCNc1nc2c(s1)CCCC2C(=O)N(C)C1CCN(Cc2cc3ccccc3o2)C1` (stereo not shown) [Example 41, 2-Hexanylamino-4,5,6,7-tetrahydrobenzthiazol-4-carboxylic acid(1-benzofuran-2-ylmethylpyrrolidin-3-yl)methylamide] here?
A: The value was 77%.

Q: How did the “% Inhibition of 5-HT uptake [10 μM]” value turn out when `CC1CCCCN1CCCNC(=O)C1CCCc2sc(NC(=O)COc3ccccc3)nc21` (stereo not shown) [Example 42, 2-(2-Phenoxyacetylamino)-4,5,6,7-tetrahydrobenzthiazol-4-carboxylic acid[3-(2-methylpiperidin-1-yl)propyl]amide] was run?
A: The value was 42%.

Q: How did the inhibition at 10 µM turn out when `O=C(Nc1nc2c(s1)CCCC2C(=O)NCCN1CCCC1)c1ccc2ccccc2c1` (stereo not shown) [Example 43, 2-[(Naphthalene-2-carbonyl)amino]-4,5,6,7-tetrahydrobenzthiazol-4-carboxylic acid (2-pyrrolidin-1-ylethyl)amide] was run?
A: Its inhibition at 10 µM is 63%.

Q: How did the inhibition at 10 µM turn out when `CN(C)c1ccc(CNC(=O)C2CCCc3sc(NC(=O)c4ccc5ccccc5c4)nc32)cc1` (stereo not shown) [Example 45, 2-[(Naphthalene-2-carbonyl)amino]-4,5,6,7-tetrahydrobenzthiazol-4-carboxylic acid 4-dimethylaminobenzylamide] was run?
A: Its inhibition at 10 µM is 42%.

Q: Which “% Inhibition of 5-HT uptake [10 μM]” value does the source give for `CN1CCCC1CCNC(=O)C1CCCc2sc(NC(=O)COc3ccc(F)cc3)nc21` (stereo not shown) [Example 46, 2-[2-(4-Fluorophenoxy)acetylamino]-4,5,6,7-tetrahydrobenzthiazol-4-carboxylic acid[2-(1-methylpyrrolidin-2-yl)ethyl]amide] here?
A: Its value is 53%.

Q: `CCOc1ccccc1CN1CCC(CNC(=O)C2CCCc3sc(NC(=O)COc4ccccc4)nc32)C1` (stereo not shown) [Example 51, 2-(2-Phenoxyacetylamino)-4,5,6,7-tetrahydrobenzthiazol-4-carboxylic acid[1-(2-ethoxybenzyl)pyrrolidin-3-yl]methylamide] was tested. Which “% Inhibition of 5-HT uptake [10 μM]” value did it give?
A: Its value is 59%.

Q: How did the “% Inhibition of 5-HT uptake [10 μM]” value turn out when `O=C(Nc1nc2c(s1)CCCC2C(=O)N1CCN(Cc2ccccc2F)CC1)c1ccc2ccccc2c1` (stereo not shown) [Example 53, Naphthalene-2-carboxylic acid{4-[4-(2-fluorobenzyl)piperazin-1-carbonyl]-4,5,6,7-tetrahydrobenzthiazol-2-yl}amide] was run?
A: Its value is 42%.

Q: `O=C(Cc1cc(F)cc(F)c1)Nc1nc2c(s1)CCCC2C(=O)N1CCCC1CN1CCCC1` (stereo not shown) [Example 57, 2-(3,5-Difluorophenyl)-N-[4-(2-pyrrolidin-1-ylmethylpyrrolidin-1-carbonyl)-4,5,6,7-tetrahydrobenzthiazol-2-yl]acetamide] was tested. Which inhibition at 10 µM did it give?
A: Its inhibition at 10 µM is 72%.

Q: For `CCCCCC(=O)Nc1nc2c(s1)CCCC2C(=O)N1CCN(Cc2ccc(OC)c(F)c2)CC1` (stereo not shown) [Example 59, Hexanoic acid{4-[4-(3-fluoro-4-methoxybenzyl)piperazin-1-carbonyl]-4,5,6,7-tetrahydrobenzthiazol-2-yl}amide], which “% Inhibition of 5-HT uptake [10 μM]” value is on record?
A: The value was 46%.

Q: Which “% Inhibition of 5-HT uptake [10 μM]” value does the source give for `O=C(Cc1cc(F)cc(F)c1)Nc1nc2c(s1)CCCC2C(=O)NCC1CCN(Cc2c(Cl)cccc2Cl)C1` (stereo not shown) [Example 62, 2-[2-(3,5-Difluorophenyl)acetylamino]-4,5,6,7-tetrahydrobenzthiazol-4-carboxylic acid[1-(2,6-dichlorobenzyl)pyrrolidin-3-yl]methylamide] here?
A: The value was 53%.

Q: How did the “% Inhibition of 5-HT uptake [10 μM]” value turn out when `CCCCCC(=O)Nc1nc2c(s1)CCCC2C(=O)N1CCN(Cc2cc3ccccc3o2)CC1` (stereo not shown) [Example 65, Hexanoic acid[4-(4-benzofuran-2-ylmethylpiperazin-1-carbonyl)-4,5,6,7-tetrahydrobenzthiazol-2-yl]amide] was run?
A: Its value is 44%.

Q: How did the inhibition at 10 µM turn out when `CN(CCCNC(=O)C1CCCc2sc(NC(=O)CC3CCCCC3)nc21)c1ccccc1` (stereo not shown) [Example 68, 2-(2-Cyclohexylacetylamino)-4,5,6,7-tetrahydrobenzthiazol-4-carboxylic acid [3-(methylphenyl-amino)propyl]amide] was run?
A: Its inhibition at 10 µM is 84%.

Q: How did the “% Inhibition of 5-HT uptake [10 μM]” value turn out when `CCOc1ccccc1C(=O)Nc1nc2c(s1)CCCC2C(=O)NCCCN(C)c1ccccc1` (stereo not shown) [Example 69, 2-(2-Ethoxybenzoylamino)-4,5,6,7-tetrahydrobenzthiazol-4-carboxylic acid[3-(methylphenyl-amino)propyl]amide] was run?
A: The value was 80%.

Q: With `O=C(CCc1ccccc1)Nc1nc2c(s1)CCCC2C(=O)N1CCN(c2ccc(C(F)(F)F)cn2)CC1` (stereo not shown) [Example 70, 3-Phenyl-N-{4-[4-(5-trifluoromethylpyridin-2-yl)piperazin-1-carbonyl]-4,5,6,7-tetrahydrobenzthiazol-2-yl}propionamide] as the molecule, how does the inhibition at 10 µM read?
A: Its inhibition at 10 µM is 44%.

Q: `O=C(Cc1cc(F)cc(F)c1)Nc1nc2c(s1)CCCC2C(=O)N1CCN(c2cccc(C(F)(F)F)c2)CC1` (stereo not shown) [Example 74, 2-(3,5-Difluorophenyl)-N-{4-[4-(3-trifluoromethylphenyl)piperazin-1-carbonyl]-4,5,6,7-tetrahydrobenzthiazol-2-yl}acetamide] was tested. Which inhibition at 10 µM did it give?
A: Its inhibition at 10 µM is 82%.

Q: How did the inhibition at 10 µM turn out when `O=C(C=Cc1ccco1)Nc1nc2c(s1)CCCC2C(=O)N1CCN(c2cccc(C(F)(F)F)c2)CC1` (stereo not shown) [Example 76, 3-Furan-2-yl-N-{4-[4-(3-trifluoromethylphenyl)piperazin-1-carbonyl]-4,5,6,7-tetrahydrobenzthiazol-2-yl}acrylamide] was run?
A: The inhibition at 10 µM was 62%.
